Reference: BindingDB's records for doi:10.1111/cbdd.12205 (Srtm University, 2014)

Legend:
[1] = biological target: Xanthine dehydrogenase/oxidase (Bos taurus, UniProt P80457); assay: Xanthine Oxidase Activity; settings: pH 7.6; 25 °C
Protocol: The enzyme was preincubated with test compound, dissolved in DMSO (1% v/v), for 5 min and the reaction was initiated by the addition of xanthine.

Alpha-glucosidase MAL12 = Alpha-glucosidase MAL12 (Saccharomyces cerevisiae (strain ATCC 204508 / S288c), UniProt P53341); assay: Alpha-Glucosidase Assay
Protocol: The assay was performed using isolated phenolics from maize, and inhibition was determined according to previously described method.

Chain of Alpha-glucosidase MAL12 (P53341 whole entry): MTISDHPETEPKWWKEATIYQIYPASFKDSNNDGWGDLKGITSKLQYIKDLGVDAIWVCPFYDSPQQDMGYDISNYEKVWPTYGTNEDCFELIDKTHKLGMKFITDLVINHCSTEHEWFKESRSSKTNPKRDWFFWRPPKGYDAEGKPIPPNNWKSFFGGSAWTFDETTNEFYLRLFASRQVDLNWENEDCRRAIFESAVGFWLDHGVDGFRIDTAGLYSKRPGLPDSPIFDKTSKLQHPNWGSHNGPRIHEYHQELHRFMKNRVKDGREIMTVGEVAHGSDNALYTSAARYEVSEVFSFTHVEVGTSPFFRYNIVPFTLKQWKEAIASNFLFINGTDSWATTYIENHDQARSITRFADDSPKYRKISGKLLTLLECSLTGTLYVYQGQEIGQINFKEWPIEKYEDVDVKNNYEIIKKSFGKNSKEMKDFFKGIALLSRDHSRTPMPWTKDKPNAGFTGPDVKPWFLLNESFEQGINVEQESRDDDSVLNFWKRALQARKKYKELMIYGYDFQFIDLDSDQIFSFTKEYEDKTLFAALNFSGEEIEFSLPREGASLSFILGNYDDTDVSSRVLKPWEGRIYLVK
Chain of Xanthine dehydrogenase/oxidase (P80457 whole entry): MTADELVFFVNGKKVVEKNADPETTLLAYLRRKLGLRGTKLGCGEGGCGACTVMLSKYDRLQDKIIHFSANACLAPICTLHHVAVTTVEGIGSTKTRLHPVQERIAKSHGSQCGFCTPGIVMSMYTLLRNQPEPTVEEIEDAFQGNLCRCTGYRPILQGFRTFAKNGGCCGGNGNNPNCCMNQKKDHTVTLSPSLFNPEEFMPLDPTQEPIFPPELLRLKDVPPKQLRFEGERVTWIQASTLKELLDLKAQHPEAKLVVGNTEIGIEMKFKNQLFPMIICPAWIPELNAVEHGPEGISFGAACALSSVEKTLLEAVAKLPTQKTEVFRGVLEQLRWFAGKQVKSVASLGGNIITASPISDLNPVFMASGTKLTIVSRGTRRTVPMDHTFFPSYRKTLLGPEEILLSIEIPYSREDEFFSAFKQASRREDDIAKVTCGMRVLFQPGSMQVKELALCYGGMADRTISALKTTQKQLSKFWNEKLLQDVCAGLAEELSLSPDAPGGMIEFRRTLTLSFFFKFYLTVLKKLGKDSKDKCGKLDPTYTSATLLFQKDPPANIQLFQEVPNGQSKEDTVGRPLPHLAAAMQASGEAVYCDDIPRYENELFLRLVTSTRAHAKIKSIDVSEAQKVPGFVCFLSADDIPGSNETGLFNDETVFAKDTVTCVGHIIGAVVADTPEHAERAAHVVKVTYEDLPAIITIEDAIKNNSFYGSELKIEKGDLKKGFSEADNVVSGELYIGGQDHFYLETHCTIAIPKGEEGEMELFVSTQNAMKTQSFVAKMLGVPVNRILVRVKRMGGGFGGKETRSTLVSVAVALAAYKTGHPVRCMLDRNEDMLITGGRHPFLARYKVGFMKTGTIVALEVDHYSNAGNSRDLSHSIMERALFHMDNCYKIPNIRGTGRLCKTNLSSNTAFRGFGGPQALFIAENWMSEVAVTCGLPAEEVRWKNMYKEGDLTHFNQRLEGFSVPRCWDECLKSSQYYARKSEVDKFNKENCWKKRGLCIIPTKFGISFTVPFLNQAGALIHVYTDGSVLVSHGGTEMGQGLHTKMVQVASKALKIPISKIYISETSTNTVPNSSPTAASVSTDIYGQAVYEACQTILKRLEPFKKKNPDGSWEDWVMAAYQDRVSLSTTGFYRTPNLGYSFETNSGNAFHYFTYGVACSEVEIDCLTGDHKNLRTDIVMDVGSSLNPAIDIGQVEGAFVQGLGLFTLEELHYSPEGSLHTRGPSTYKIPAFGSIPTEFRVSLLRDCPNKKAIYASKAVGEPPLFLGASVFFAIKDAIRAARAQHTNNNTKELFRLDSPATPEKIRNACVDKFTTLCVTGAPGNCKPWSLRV

SMILES	IC50 [1] [µM]	IC50 (Alpha-glucosidase MAL12) [µM]
O=C(O)/C=C/c1ccc(O)cc1 [p-Coumaric Acid]	6.8	90.8
CC[C@H]1O[C@@H](Oc2c(-c3ccc(O)c(OC)c3)oc3cc(O)cc(=O)c-3c2O)[C@H](O)[C@@H](O)[C@@H]1O [3‐{[(2S,3R,4S,5S,6R)‐6‐ethyl‐3,4,5‐trihydroxyoxan‐2‐ yl]oxy}‐5,7‐dihydroxy‐2‐(4‐hydroxy‐3‐ methoxyphenyl)‐4H‐chromen‐4‐one]	8.6	246
O=C(O)c1c(O)cc(O)cc1O [2,4,6-trihydroxybenzoic acid (M3)]	6.5	113
COc1cc(-c2oc3cc(O)cc(=O)c-3cc2OC2OC(CO)C(O)C(O)C2O)ccc1O [5,7‐dihydroxy‐2‐(4‐hydroxy‐3‐methoxyphenyl)‐3‐ {[(2S,3R,4S,5S,6R)‐3,4,5‐trihydroxy‐6‐ (hydroxymethyl)oxan‐2‐yl]oxy}‐1λ⁴‐chromen‐1‐ylium]	8.7	260
O=c1cc(O)cc2oc(-c3ccc(O)c(O)c3)c(OC3OC(CO)C(O)C(O)C3O)cc1-2 (stereo not drawn) [Cyanidin-3-glucoside (M8)]	7.2	221
COc1cc(/C=C/C(=O)O)ccc1O [Ferulic acid (M5)]	8.2	251
COc1cc(C(=O)O)ccc1O [4-hydroxy-3-methoxybenzoic acid]	8.5	205
O=C(O)c1ccc(O)c(O)c1 [Protocatechuic acid (M1)]	5.8	85.1
O=c1cc(O)cc2oc(-c3ccc(O)cc3)c(OC3OC(CO)C(O)C(O)C3O)cc1-2 [5,7‐dihydroxy‐2‐(4‐hydroxyphenyl)‐3‐ {[(2S,3R,4S,5S,6R)‐3,4,5‐trihydroxy‐6‐ (hydroxymethyl)oxan‐2‐yl]oxy}‐1λ⁴‐chromen‐1‐ylium]	7	198
